Measurements: US20120283297A1, “OXADIAZOLE SUBSTITUTED INDAZOLE DERIVATIVES FOR USE AS SPHINGOSINE 1-PHOSPHATE 1 (S1P1) RECEPTOR AGONISTS” (GLAXO WELLCOME HOUSE, priority 2009, published 2012)
pEC50: −log10 of the molar value.

These molecules were tested against T1, S1P1 receptor (Homo sapiens, UniProt P21453) (assay: S1P1 Tango Assay). Details: agonist activity, recombinant EDG1-bla/U2OS cells, beta-lactamase FRET readout.
T1 construct: TEV protease site; Gal4-VP16 transcription factor; expressed in transfected cells; host or cells: Tango GPCR-bla U2OS parental cell line (EDG1-bla/U2OS)
Format: cell-based
From the text: The potencies and efficacies of the compounds of this invention for the S1P1 receptor can be determined by S1P1 Tango assay performed on the human cloned receptor as described herein.
Recombinant EDG1-bla/U2OS cells (contain the human Endothelial Differentiation Gene 1 (EDG1) linked to a TEV protease site and a Gal4-VP16 transcription factor stably integrated into the Tango GPCR-bla U2OS parental cell line) were harvested from growth medium and passaged into assay medium (Invitrogen Freestyle Expression Medium). The cells were starved for 24 hours at 37° C., 5% CO2, harvested and resuspended in assay medium at a density of ˜200,000 cells/ml. All test compounds were dissolved in DMSO at a concentration of 10 mM and were prepared in 100% DMSO to provide 10 point dose response curves. Test compounds prepared by Bravo (Velocity11) were added to wells in columns 2-11 and 13-22; DMSO was added to wells in columns 12 and 23 as unstimulated controls and assay medium was added to wells in columns 1 and 24 as cell-free controls. An S1P1 agonist was added to wells in row 2, columns 2-11 as stimulated controls and test compounds were added to wells in row 2, columns 13-22 and rows 3-15, columns 2-11/13-22 (row 1 and 16 were empty and not used). Compounds in solution were added to the assay plate (Greiner 781090) using an Echo (Labcyte) dose-response program (50 nl/well). The unstimulated and cell-free controls were loaded with 50 nl/well pure DMSO to ensure that the DMSO concentration was constant across the plate for all assays.
50 μl of the cell suspension was added to each well in columns 2-23 of the plate (˜10,000 cells per well). 50 μl of assay medium was added to each well in the cell-free controls (columns 1 and 24). The cells were incubated overnight at 37° C./5% CO2. 10 μl of 6× substrate mixture (LiveBLAzer™-FRET BIG substrate (CCF4-AM) Cat # K1096 from Invitrogen, Inc.) was added to each well using Bravo and the plates incubated at room temperature for 2 h in the dark. The plate was finally read on EnVision for two emission channels (460 nm and 530 nm).
The blue/green emission ratio (460 nm/530 nm) was calculated for each well, by dividing the background-subtracted Blue emission values by the background-subtracted Green emission values. The dose response curve is based on sigmoidal dose-response model. All ratio data was normalized based upon the maximum emission ratio of positive control and minimum emission ratio of negative control (DMSO) on each plate. The intrinsic activity (IA) of each compound would be the normalized percentage of its maximum response after curve fitting.

T1 sequence (P21453 whole entry, the tested form may be a part): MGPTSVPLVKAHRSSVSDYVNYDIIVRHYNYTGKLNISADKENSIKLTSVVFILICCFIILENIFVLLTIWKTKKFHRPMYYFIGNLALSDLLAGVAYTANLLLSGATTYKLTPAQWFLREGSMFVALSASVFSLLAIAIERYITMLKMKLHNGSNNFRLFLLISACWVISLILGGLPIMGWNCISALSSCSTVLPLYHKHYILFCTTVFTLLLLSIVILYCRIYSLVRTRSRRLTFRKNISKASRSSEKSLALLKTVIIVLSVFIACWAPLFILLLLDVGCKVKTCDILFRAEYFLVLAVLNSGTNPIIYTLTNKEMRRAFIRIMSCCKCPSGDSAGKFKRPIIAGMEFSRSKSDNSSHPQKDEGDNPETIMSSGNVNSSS

First: CC(C)Oc1ccc(-c2nc(-c3cccc4c3cnn4CC(O)C(=O)O)no2)cc1Cl (single isomer, unassigned) [Example 9, Lithium 3-[4-(5-{3-chloro-4-[(1-methylethyl)oxy]phenyl}-1,2,4-oxadiazol-3-yl)-1H-indazol-1-yl]-2-hydroxypropanoate]
Second: CC(C)Oc1ccc(-c2nc(-c3cccc4c3cnn4CC(C)C(=O)O)no2)cc1Cl (centres unmarked) [Example 5, 3-[4-(5-{3-Chloro-4-[(1-methylethyl)oxy]phenyl}-1,2,4-oxadiazol-3-yl)-1H-indazol-1-yl]-2-methylpropanoic acid]
The pEC50 of the first is higher: 8.00 to 9.00 for the first, 7.00 to 8.00 for the second.

`CC(C)Oc1ccc(-c2nc(-c3cccc4c3cnn4CCCCC(=O)O)no2)cc1Cl` [Example 6, 5-[4-(5-{3-Chloro-4-[(1-methylethyl)oxy]phenyl}-1,2,4-oxadiazol-3-yl)-1H-indazol-1-yl]pentanoic acid] and `CC(C)Oc1ccc(-c2nc(-c3cccc4c3cnn4C3(CC(=O)O)COC3)no2)cc1Cl` [Example 8, {3-[4-(5-{3-Chloro-4-[(1-methylethyl)oxy]phenyl}-1,2,4-oxadiazol-3-yl)-1H-indazol-1-yl]-3-oxetanyl}acetic acid] fall in the same range of pEC50: 7.00 to 8.00 for the first, 7.00 to 8.00 for the second.

First: CC(C)Oc1ccc(-c2nc(-c3cccc4[nH]ncc34)no2)cc1Cl [Example 4, 4-(5-{3-Chloro-4-[(1-methylethyl)oxy]phenyl}-1,2,4-oxadiazol-3-yl)-1H-indazole]
Second: CC(C)Oc1ccc(-c2nc(-c3cccc4[nH]ncc34)no2)cc1C#N [Example 3, 5-[3-(1H-Indazol-4-yl)-1,2,4-oxadiazol-5-yl]-2-[(1-methylethyl)oxy]benzonitrile]
The pEC50 of the first is lower: 7.00 to 8.00 for the first, no less than 9.00 for the second.

First: CC(C)Oc1ncc(-c2nc(-c3ccc4c(cnn4CCC(=O)O)c3)no2)cc1Cl [Example 10, 3-[5-(5-{5-Chloro-6-[(1-methylethyl)oxy]-3-pyridinyl}-1,2,4-oxadiazol-3-yl)-1H-indazol-1-yl]propanoic acid]
Second: CC(C)Oc1ncc(-c2nc(-c3ccc4c(cnn4CCCC(=O)O)c3)no2)cc1C#N [Example 14, 4-[5-(5-{5-Cyano-6-[(1-methylethyl)oxy]-3-pyridinyl}-1,2,4-oxadiazol-3-yl)-1H-indazol-1-yl]butanoic acid]
The pEC50 of the first is lower: 7.00 to 8.00 for the first, no less than 9.00 for the second.

Compared with `CC(C)Oc1ncc(-c2nc(-c3cc4cn[nH]c4cc3Cl)no2)cc1Cl` [Example 19, 6-Chloro-5-(5-{5-chloro-6-[(1-methylethyl)oxy]-3-pyridinyl}-1,2,4-oxadiazol-3-yl)-1H-indazole], `CC(C)Oc1ncc(-c2nc(-c3ccc4[nH]ncc4c3)no2)cc1Cl` [Example 11, 5-(5-{5-Chloro-6-[(1-methylethyl)oxy]-3-pyridinyl}-1,2,4-oxadiazol-3-yl)-1H-indazole] is lower in pEC50: 8.00 to 9.00 for the first, 7.00 to 8.00 for the second. The first is the more potent here.

Compared with `CC(C)Oc1ncc(-c2nc(-c3cc4cnn(CCCC(=O)O)c4cc3F)no2)cc1Cl` [Example 17, 4-[5-(5-{5-Chloro-6-[(1-methylethyl)oxy]-3-pyridinyl}-1,2,4-oxadiazol-3-yl)-6-fluoro-1H-indazol-1-yl]butanoic acid], `Cc1c(-c2noc(-c3cnc(OC(C)C)c(Cl)c3)n2)ccc2c1cnn2CCCC(=O)O` [Example 13, 4-[5-(5-{5-Chloro-6-[(1-methylethyl)oxy]-3-pyridinyl}-1,2,4-oxadiazol-3-yl)-4-methyl-1H-indazol-1-yl]butanoic acid] is higher in pEC50: 7.00 to 8.00 for the first, 8.00 to 9.00 for the second.

`CC(C)Oc1ccc(-c2nc(-c3ccc4[nH]ncc4c3)no2)cc1Cl` [Example 1, 5-(5-{3-Chloro-4-[(1-methylethyl)oxy]phenyl}-1,2,4-oxadiazol-3-yl)-1H-indazole] and `CC(C)Oc1ccc(-c2nc(-c3ccc4[nH]ncc4c3)no2)cc1C#N` [Example 2, 5-[3-(1H-Indazol-5-yl)-1,2,4-oxadiazol-5-yl]-2-[(1-methylethyl)oxy]benzonitrile] cannot be ordered by pEC50: no less than 9.00 for the first, 8.00 to 9.00 for the second.
